Results: patent publication EP2678315B1, “(Pyridin-4-yl)benzylamides as allosteric modulators of alpha 7 nAChR” (Janssen Pharmaceutica, N.V., priority 2011, dated 2012)

Molecular target: T1, human alpha 7-wt nAChR (Homo sapiens, UniProt P36544)
T1 construct: expressed in transfected cells
Assay: Ca2+ flux imaging (FDSS) (protocol B)
Type: cell-based
Settings: for EC50: Ca2+ assay as described in D.1, read-out: pEC50 (converted); for Emax: read-out: % Efficacy
Experimental: Example D.1 : Ca^2+ flux imaging (FDSS) (protocol B)
• a) Assay buffer Hanks buffered saline solution (HBSS, Invitrogen, Belgium), supplemented with 10 mM HEPES (Invitrogen, Belgium), CaCl2 to a final concentration of 5 mM, 0.1 % Bovine serum albumin (Sigma-Aldrich NV, Belgium). • b) Calcium-sensitive dye - Fluo-4AM Fluo-4AM (Molecular Probes, USA) was dissolved in DMSO containing 10% Pluronic acid (Molecular Probes, USA) to give a stock solution which was diluted in assay buffer supplemented with 5 mM probenicid (Sigma, Aldrich NV, Belgium) to give a final concentration of 2 µM • c) 384-well plates Black-sided, transparent bottomed 384 well plates coated with poly-D-lysine, PDL pre-coated (Coming, Incorporated, USA) • d) Calcium flux measurement A Functional drug screening system (FDSS, Hamamatsu) was used to measure intracellular free-calcium flux signals.
Monolayers of human alpha 7-wt nAChR-expressing cells were grown in black-sided, transparent bottomed 384 well plates coated with PDL for 24 hours prior to loading with a fluorescent calcium indicator, fluo-4AM for up to 120 minutes.
PAM activity was detected in real time by applying the compounds to be tested to the loaded cells along with an alpha 7 nicotinic receptor agonist during constant monitoring of cellular fluorescence in a FDSS. Compounds giving peak fluorescent responses greater than the response due to agonist alone, were consideted to be alpha 7 nAChR PAMs. The alpha 7 nicotinic receptor agonist was choline, applied at a sub-maximal concentration of 100 µM. In a further setting of the present invention the compounds were applied prior to the alpha 7 nicotinic receptor agonist, in a particular 10 minutes prior to the agonist.
A control response to choline was calculated on each plate from the difference in peak in fluorescence in wells receiving either choline or assay buffer alone. Compounds of the present invention were tested at a concentration range from 0.01 µM to 30 µM. Compounds were considered to have an interesting activity when they potentiated the choline signal at least with 200 % when tested at a concentration of 30 µM (the efficacy of 100 µM choline was defined as 100% in the absence of a PAM). An EC50 (or pEC50) was determined as a concentration relating to half the maximal effect, when a clear sigmoidal curve with top plateau was obtained.

T1 sequence (P36544 23-502): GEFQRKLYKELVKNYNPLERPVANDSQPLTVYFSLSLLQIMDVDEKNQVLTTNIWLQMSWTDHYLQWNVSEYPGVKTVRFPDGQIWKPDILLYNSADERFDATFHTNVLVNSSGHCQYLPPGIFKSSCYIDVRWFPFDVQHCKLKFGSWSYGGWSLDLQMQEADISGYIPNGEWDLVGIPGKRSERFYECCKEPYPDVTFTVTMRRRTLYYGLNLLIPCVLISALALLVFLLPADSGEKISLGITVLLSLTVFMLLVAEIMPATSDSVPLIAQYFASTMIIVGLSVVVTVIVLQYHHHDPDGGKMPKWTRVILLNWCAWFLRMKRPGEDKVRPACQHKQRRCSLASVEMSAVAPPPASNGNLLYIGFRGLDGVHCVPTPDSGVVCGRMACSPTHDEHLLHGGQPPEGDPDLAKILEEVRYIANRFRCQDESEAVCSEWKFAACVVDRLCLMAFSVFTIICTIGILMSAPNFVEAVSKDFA

EC50 [nM] | Compound | Emax [%]
457 | Cc1cc(-c2ccc(C3C[C@@H](C)O[C@@H](C)C3)c(F)c2CNC(=O)CC2CC2)cc(C)n1 (relative stereo) [Compound 53] | 
479 | Cc1cc(-c2ccc(N3C[C@@H](C)O[C@@H](C)C3)c(F)c2CNC(=O)C(C)C2CC2)cc(C)n1 (mixture of isomers) [Compound 50] | 
5.37 | Cc1cc(-c2c(F)cc(N3C[C@@H](C)O[C@@H](C)C3)cc2CNC(=O)CCC(F)(F)F)cc(C)n1 [Compound 81] | 
1070 | Cc1cc(-c2ccc(C3C[C@@H](C)O[C@@H](C)C3)c(F)c2CNC(=O)c2conc2C)cc(C)n1 (relative stereo) [Compound 63] | 
9.33 | Cc1cc(-c2ccc(N3C[C@@H](C)O[C@@H](C)C3)cc2CNC(=O)c2ccc(F)cc2C)cc(C)n1 [Compound 5] | 
1100 | CC(C)C(=O)NCc1cc(N2C[C@@H](C)O[C@@H](C)C2)ccc1-c1ccncc1 [Compound 15] | 

Compound | EC50 [nM] | Emax [%]
Cc1cc(-c2c(F)cc(N3CCCC(C(F)(F)F)C3)cc2CNC(=O)C2CC2)cc(C)n1 (stereo not shown) [Compound 97] | 19.5 | 330
Cc1cc(-c2c(F)cc(N3CCCC(C(F)(F)F)C3)cc2CNC(=O)C(C)C2CC2)cc(C)n1 (stereo not shown) [Compound 93] | 36.3 | 736
Cc1cc(-c2c(F)cc(N3C[C@@H](C)O[C@@H](C)C3)cc2CNC(=O)C2CCC2)cc(C)n1 [Compound 85] | 6.17 | 954
Cc1cc(-c2ccc(N3CCCC(C(F)(F)F)C3)cc2CNC(=O)c2cc(C)on2)cc(C)n1 (stereo not shown) [Compound 34] | 537 | 405
Cc1nocc1C(=O)NCc1cc(N2C[C@@H](C)O[C@@H](C)C2)ccc1-c1ccncc1 [Compound 17] | 1660 | 681
